Measurements reported in US20260137703A1, “2-AMINO-PYRIDO[2,3-D]PYRIMIDIN-7(8H)-ONE AND 7-AMINO-1-PYRIMIDO[4,5-D]PYRIMIDIN-2(1 H)-ONE DERIVATIVES AS EGFR INHIBITORS FOR THE TREATMENT OF CANCER” (Cancer Research Technology Limited, priority 2022, published 2026).

Assays:
[1] = target: T1, Phospho-EGFR (Tyr1068) in H1975 cells (Homo sapiens, UniProt P00533, L858R/T790M); test: HTRF pEGFR/total EGFR in H1975 cells; type: cell-based; conditions: ratio pEGFR/total EGFR, compound 3 hours
T1 construct: host or cells: H1975
Method in brief: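 H1975 cells (EGFR L858R/T790M) treated 3 h with compound in 0.1% DMSO, in duplicate, 24 h after plating. Lysates assayed by HTRF for pEGFR (Tyr1068) and total EGFR at 665/620 nm; values are pEGFR/total EGFR ratio as percent of 0 μM control.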

[2] = target: T2, Phospho-EGFR (Tyr1068) in H1975 C797S cells (CRISPR-edited EGFR C797S) (Homo sapiens, UniProt P00533, C797S/L858R/T790M); test: HTRF pEGFR/total EGFR in H1975 C797S cells; type: cell-based; conditions: ratio pEGFR/total EGFR, compound 3 hours
T2 construct: host or cells: H1975 C797S (CRISPR-edited)
Method in brief: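 Adhered H1975 C797S cells got compound for 3 h in duplicate at 0.1% DMSO final, then were lysed 30 min at room temperature. HTRF kits quantified phospho-EGFR (Tyr1068) and total EGFR (665/620 nm); results are pEGFR/total EGFR ratio as percent of 0 μM control.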

[3] = target: T3, Phospho-EGFR (Tyr1068) in A431 cells (Homo sapiens, UniProt P00533); test: HTRF pEGFR/total EGFR in A431 cells with EGF stimulation; type: cell-based; conditions: ratio pEGFR/total EGFR, compound 2.5 hours then 100 ng/ml EGF 30 mins
T3 construct: endogenous in cells; host or cells: A431
Method in brief: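 A431 cells were plated at 20,000 per well, allowed 24 h to adhere, then given compound for 2.5 h (0.1% DMSO final). They were then stimulated with 100 ng/ml EGF for 30 min and lysed. HTRF measured Tyr1068-phospho and total EGFR at 665/620 nm, with pEGFR/total EGFR expressed as % of the 0 μM control.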

[4] = target: CtermHisTag-mEGFR Wild type (Homo sapiens, UniProt P00533); test: biochemical
Chain of CtermHisTag-mEGFR Wild type (P00533 whole entry): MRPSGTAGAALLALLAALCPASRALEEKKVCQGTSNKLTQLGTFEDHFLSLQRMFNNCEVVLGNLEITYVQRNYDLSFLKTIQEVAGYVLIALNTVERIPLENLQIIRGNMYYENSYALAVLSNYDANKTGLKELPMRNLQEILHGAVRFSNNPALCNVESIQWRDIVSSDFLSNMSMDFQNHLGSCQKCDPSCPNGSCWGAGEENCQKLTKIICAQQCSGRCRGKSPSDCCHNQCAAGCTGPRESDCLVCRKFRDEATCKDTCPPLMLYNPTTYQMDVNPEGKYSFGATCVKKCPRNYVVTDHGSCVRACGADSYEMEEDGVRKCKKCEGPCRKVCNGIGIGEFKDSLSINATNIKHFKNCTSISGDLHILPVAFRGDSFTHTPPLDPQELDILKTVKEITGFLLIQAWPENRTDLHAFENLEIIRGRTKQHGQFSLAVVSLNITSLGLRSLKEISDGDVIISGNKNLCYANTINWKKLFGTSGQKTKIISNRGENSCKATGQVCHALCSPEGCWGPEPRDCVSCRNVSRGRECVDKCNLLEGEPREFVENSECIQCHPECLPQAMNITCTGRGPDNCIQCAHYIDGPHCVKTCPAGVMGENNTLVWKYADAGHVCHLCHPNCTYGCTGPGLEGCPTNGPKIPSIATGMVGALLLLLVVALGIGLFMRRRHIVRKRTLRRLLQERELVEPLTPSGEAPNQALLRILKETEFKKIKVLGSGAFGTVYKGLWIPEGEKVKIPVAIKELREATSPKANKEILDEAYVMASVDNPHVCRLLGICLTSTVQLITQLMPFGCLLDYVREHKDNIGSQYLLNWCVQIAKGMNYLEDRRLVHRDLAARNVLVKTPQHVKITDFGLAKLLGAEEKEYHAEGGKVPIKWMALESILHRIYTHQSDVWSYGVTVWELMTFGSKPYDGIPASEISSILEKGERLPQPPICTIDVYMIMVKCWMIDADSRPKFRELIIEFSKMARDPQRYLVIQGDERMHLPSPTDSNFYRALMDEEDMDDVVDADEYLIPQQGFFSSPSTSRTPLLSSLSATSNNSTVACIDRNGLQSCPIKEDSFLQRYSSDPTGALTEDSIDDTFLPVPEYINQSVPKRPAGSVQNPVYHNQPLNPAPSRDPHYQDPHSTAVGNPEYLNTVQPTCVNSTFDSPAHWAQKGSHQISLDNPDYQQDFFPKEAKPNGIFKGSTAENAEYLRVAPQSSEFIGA

T1 sequence (P00533 25-1210 T790M/L858R): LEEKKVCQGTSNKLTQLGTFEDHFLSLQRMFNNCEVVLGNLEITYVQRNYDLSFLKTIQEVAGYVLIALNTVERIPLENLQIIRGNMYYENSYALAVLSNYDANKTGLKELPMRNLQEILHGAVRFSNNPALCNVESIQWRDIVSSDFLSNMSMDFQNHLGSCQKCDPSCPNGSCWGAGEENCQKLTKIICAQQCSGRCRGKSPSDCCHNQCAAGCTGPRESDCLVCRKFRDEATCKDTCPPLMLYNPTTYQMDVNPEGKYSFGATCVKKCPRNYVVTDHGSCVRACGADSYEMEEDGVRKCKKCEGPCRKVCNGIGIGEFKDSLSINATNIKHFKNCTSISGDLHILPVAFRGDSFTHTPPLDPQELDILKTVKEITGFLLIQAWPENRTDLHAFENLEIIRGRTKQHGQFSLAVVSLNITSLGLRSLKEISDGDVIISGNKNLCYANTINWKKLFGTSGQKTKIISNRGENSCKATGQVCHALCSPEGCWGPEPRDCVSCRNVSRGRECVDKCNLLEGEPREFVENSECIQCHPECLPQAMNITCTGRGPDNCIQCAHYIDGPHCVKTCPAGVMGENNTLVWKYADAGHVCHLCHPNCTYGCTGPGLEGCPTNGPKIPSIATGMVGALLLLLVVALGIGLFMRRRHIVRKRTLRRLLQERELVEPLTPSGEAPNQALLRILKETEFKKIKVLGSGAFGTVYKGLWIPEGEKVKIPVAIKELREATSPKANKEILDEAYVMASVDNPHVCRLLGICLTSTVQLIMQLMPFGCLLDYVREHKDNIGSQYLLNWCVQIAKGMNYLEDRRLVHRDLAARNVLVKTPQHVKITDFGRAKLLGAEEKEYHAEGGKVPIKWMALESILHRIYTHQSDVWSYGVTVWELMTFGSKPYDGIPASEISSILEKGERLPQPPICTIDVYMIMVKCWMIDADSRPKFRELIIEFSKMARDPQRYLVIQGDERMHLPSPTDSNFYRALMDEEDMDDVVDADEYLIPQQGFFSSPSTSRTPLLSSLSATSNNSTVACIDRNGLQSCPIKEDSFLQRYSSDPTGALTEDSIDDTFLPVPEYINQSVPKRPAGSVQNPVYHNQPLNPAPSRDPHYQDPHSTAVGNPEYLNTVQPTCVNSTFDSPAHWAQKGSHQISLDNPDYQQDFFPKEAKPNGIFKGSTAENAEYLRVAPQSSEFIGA
T3 sequence (P00533 25-1210): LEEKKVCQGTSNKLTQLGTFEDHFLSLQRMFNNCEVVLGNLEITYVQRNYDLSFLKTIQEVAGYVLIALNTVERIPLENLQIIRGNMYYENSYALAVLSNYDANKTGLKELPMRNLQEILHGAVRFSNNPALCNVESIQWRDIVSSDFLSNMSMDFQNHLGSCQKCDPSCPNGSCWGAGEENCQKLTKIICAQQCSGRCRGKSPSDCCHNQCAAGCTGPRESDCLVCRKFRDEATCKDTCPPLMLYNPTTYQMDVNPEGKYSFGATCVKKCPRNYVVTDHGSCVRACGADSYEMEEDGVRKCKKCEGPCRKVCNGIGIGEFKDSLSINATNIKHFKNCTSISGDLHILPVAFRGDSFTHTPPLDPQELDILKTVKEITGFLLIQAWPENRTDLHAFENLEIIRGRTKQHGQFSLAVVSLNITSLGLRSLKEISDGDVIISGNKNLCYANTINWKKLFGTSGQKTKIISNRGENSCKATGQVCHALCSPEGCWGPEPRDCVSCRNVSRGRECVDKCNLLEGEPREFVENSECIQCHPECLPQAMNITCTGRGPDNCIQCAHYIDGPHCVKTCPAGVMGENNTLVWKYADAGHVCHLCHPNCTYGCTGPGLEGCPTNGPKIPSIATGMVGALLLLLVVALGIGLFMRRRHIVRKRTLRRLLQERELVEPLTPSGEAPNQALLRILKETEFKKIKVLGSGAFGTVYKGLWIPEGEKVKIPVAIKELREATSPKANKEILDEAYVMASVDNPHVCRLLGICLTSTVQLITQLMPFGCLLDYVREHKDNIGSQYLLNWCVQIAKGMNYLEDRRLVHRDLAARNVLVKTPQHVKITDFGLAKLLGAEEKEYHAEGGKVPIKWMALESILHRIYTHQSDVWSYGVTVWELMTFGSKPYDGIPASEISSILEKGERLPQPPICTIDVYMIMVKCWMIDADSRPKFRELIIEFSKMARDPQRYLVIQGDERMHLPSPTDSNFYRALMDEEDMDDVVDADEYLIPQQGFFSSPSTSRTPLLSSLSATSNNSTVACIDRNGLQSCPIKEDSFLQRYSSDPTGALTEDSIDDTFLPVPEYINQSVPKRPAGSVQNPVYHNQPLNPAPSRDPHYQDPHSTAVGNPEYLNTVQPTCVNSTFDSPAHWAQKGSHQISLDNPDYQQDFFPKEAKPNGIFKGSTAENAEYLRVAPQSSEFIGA
T2 sequence (P00533 25-1210 T790M/C797S/L858R): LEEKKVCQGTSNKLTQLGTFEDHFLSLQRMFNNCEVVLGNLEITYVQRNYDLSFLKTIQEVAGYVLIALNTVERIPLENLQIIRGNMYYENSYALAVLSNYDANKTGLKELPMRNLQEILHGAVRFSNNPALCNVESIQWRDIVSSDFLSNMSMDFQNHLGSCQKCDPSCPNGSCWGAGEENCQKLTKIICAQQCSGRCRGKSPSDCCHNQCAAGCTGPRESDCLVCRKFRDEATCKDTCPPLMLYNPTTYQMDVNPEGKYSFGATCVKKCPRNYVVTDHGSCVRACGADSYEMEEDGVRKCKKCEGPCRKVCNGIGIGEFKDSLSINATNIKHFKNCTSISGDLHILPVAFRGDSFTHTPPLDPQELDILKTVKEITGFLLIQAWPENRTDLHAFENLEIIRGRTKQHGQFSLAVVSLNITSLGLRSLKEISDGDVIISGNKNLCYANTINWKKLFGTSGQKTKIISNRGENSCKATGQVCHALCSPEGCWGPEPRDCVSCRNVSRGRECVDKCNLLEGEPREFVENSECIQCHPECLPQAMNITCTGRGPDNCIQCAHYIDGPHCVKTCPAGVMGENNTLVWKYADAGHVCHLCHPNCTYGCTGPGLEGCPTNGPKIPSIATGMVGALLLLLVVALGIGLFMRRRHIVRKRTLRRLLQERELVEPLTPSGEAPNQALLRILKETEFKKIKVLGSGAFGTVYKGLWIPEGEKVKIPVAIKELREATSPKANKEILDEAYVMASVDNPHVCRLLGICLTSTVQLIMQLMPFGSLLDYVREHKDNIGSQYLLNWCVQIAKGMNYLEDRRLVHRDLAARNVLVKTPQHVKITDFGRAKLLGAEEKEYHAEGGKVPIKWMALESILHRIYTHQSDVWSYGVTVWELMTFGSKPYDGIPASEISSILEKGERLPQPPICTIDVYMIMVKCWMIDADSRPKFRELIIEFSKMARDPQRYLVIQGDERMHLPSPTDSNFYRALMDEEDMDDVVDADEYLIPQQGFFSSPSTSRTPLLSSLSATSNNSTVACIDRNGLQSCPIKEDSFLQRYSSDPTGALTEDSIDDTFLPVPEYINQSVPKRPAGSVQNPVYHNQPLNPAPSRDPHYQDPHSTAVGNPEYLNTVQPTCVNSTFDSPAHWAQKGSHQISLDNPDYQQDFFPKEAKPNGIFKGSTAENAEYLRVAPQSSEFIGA

| IC50 [1] [µM] | IC50 [2] [µM] | IC50 [3] [µM] | IC50 [4] [µM] | SMILES |
| --- | --- | --- | --- | --- |
| 1 to 3 | 1 to 3 | > 3 | > 10 | C#Cc1cc(=O)n(C2CCOC2)c2nc(Nc3ccc(N4CCN(C)CC4)cc3)ncc12 (stereo not drawn) [Example 105, 5-ethynyl-2-{[4-(4-methylpiperazin-1-yl)phenyl]amino}-8-(oxolan-3-yl)pyrido[2,3-d]pyrimidin-7-one] |
| 1 to 3 | 1 to 3 | > 3 | > 10 | C#Cc1cc(=O)n(C2CCNC2)c2nc(Nc3ccc(N4CCN(C)CC4)cc3)ncc12 (stereo not drawn) [Example 106, 5-ethynyl-2-{[4-(4-methylpiperazin-1-yl)phenyl]amino}-8-(pyrrolidin-3-yl)pyrido[2,3-]pyrimidin-7-one] |
| > 3 | 1 to 3 | > 3 | > 10 | C#Cc1cc(=O)n(C2CCN(C)C2)c2nc(Nc3ccc(N4CCN(C)CC4)cc3)ncc12 (stereo not drawn) [Example 107, 5-ethynyl-2-{[4-(4-methylpiperazin-1-yl)phenyl]amino}-8-(1-methylpyrrolidin-3-yl)pyrido[2,3-d]pyrimidin-7-one] |
| > 3 | > 3 | > 3 | > 10 | C#Cc1cc(=O)n(C2CNC(=O)C2)c2nc(Nc3ccc(N4CCN(C)CC4)cc3)ncc12 (stereo not drawn) [Example 108, 4-(5-ethynyl-2-{[4-(4-methylpiperazin-1-yl)phenyl]amino}-7-oxopyrido[2,3-d]pyrimidin-8-yl)pyrrolidin-2-one] |
| 1 to 3 | 1 to 3 | 1 to 3 | 1 to 10 | C#Cc1c(C)c(=O)n(Cc2ccn[nH]2)c2nc(Nc3ccc(N4CCN(C)CC4)cc3)ncc12 [Example 109, 5-ethynyl-6-methyl-2-{[4-(4-methylpiperazin-1-yl)phenyl]amino}-8-(2H-pyrazol-3-ylmethyl)pyrido[2,3-d]pyrimidin-7-one] |
| 0.5 to 1 | 1 to 3 | 1 to 3 | < 1 | C#Cc1c(C)c(=O)n(Cc2ccn(C)n2)c2nc(Nc3ccc(N4CCN(C)CC4)cc3)ncc12 [Example 110, 5-ethynyl-6-methyl-2-{[4-(4-methylpiperazin-1-yl)phenyl]amino}-8-[(1-methylpyrazol-3-yl)methyl]pyrido[2,3-d]pyrimidin-7-one] |
| 1 to 3 | 1 to 3 | > 3 | 1 to 10 | C#Cc1c(C)c(=O)n(Cc2cnc[nH]2)c2nc(Nc3ccc(N4CCN(C)CC4)cc3)ncc12 [Example 111, 5-ethynyl-8-(3H-imidazol-4-ylmethyl)-6-methyl-2-{[4-(4-methylpiperazin-1-yl)phenyl]amino}pyrido[2,3-d]pyrimidin-7-one] |
| 1 to 3 | 1 to 3 | > 3 | 1 to 10 | C#Cc1c(C)c(=O)n(Cc2ccnn2C)c2nc(Nc3ccc(N4CCN(C)CC4)cc3)ncc12 [Example 112, 5-ethynyl-6-methyl-2-{[4-(4-methylpiperazin-1-yl)phenyl]amino}-8-[(2-methylpyrazol-3-yl)methyl]pyrido[2,3-d]pyrimidin-7-one] |
| 1 to 3 | 1 to 3 | 1 to 3 | 1 to 10 | C#Cc1c(C)c(=O)n(Cc2ccno2)c2nc(Nc3ccc(N4CCN(C)CC4)cc3)ncc12 [Example 113, 5-ethynyl-6-methyl-2-{[4-(4-methylpiperazin-1-yl)phenyl]amino}-8-(1,2-oxazol-5-ylmethyl)pyrido[2,3-d]pyrimidin-7-one] |
| 1 to 3 | 1 to 3 | 1 to 3 | < 1 | C#Cc1c(C)c(=O)n(Cc2ncco2)c2nc(Nc3ccc(N4CCN(C)CC4)cc3)ncc12 [Example 114, 5-ethynyl-6-methyl-2-{[4-(4-methylpiperazin-1-yl)phenyl]amino}-8-(1,3-oxazol-2-ylmethyl)pyrido[2,3-d]pyrimidin-7-one] |

The remaining lines, values behind:

| SMILES | IC50 [1] [µM] | IC50 [2] [µM] | IC50 [3] [µM] | IC50 [4] [µM] |
| --- | --- | --- | --- | --- |
| C#Cc1cc(=O)n([C@H]2CC[C@@H](NC(=O)CC(=O)NC)CC2)c2nc(Nc3ccc(N4CCN(C)CC4)cc3)ncc12 [Example 94, N-Methyl-N′-[(1s,4s)-4-(5-ethynyl-2-{[4-(4-methylpiperazin-1-yl)phenyl]amino}-7-oxopyrido[2,3-d]pyrimidin-8-yl)cyclohexyl]propanediamide] | 0.5 to 1 | 0.5 to 1 | > 3 | 1 to 10 |
| C#Cc1cc(=O)n([C@H]2CC[C@@H](NC(=O)CC(=O)N(C)C)CC2)c2nc(Nc3ccc(N4CCN(C)CC4)cc3)ncc12 [Example 95, N,N-Dimethyl-N′-[(1s,4s)-4-(5-ethynyl-2-{[4-(4-methylpiperazin-1-yl)phenyl]amino}-7-oxopyrido[2,3-d]pyrimidin-8-yl)cyclohexyl]propanediamide] | < 0.5 | < 0.5 | > 3 | 1 to 10 |
| C#Cc1cc(=O)n([C@H]2CC[C@@H](NC(=O)CCN(C)C)CC2)c2nc(Nc3ccc(N4CCN(C)CC4)cc3)ncc12 [Example 96, 3-(Dimethylamino)-N-[(1s,4s)-4-(5-ethynyl-2-{[4-(4-methylpiperazin-1-yl)phenyl]amino}-7-oxopyrido[2,3-d]pyrimidin-8-yl)cyclohexyl]propanamide] | 1 to 3 | > 3 | > 3 | < 1 |
| C#Cc1cc(=O)n([C@H]2CC[C@@H](NC(=O)CCCN(C)C)CC2)c2nc(Nc3ccc(N4CCN(C)CC4)cc3)ncc12 [Example 97, 4-(Dimethylamino)-N-[(1s,4s)-4-(5-ethynyl-2-{[4-(4-methylpiperazin-1-yl)phenyl]amino}-7-oxopyrido[2,3-d]pyrimidin-8-yl)cyclohexyl]butanamide] | 1 to 3 | 1 to 3 | > 3 | > 10 |
| C#Cc1cc(=O)n([C@H]2CC[C@@H](NC(=O)CCC(=O)NC)CC2)c2nc(Nc3ccc(N4CCN(C)CC4)cc3)ncc12 [Example 98, N-Methyl-N′-[(1s,4s)-4-(5-ethynyl-2-{[4-(4-methylpiperazin-1-yl)phenyl]amino}-7-oxopyrido[2,3-d]pyrimidin-8-yl)cyclohexyl]succinamide] | > 3 | > 3 | > 3 | 1 to 10 |
| C#Cc1cc(=O)n([C@H]2CC[C@@H](NC(=O)CC(=O)O)CC2)c2nc(Nc3ccc(N4CCN(C)CC4)cc3)ncc12 [Example 99, 2-{[(1s,4s)-4-(5-Ethynyl-2-{[4-(4-methylpiperazin-1-yl)phenyl]amino}-7-oxopyrido[2,3-d]pyrimidin-8-yl)cyclohexyl]carbamoyl}acetic acid] | 1 to 3 | > 3 | > 3 | < 1 |
| C#Cc1cc(=O)n([C@H]2CC[C@@H](NC(=O)CN(C)C)CC2)c2nc(Nc3ccc(N4CCN(C)CC4)cc3)ncc12 [Example 100, 2-(Dimethylamino)-N-[(1s,4s)-4-(5-ethynyl-2-{[4-(4-methylpiperazin-1-yl)phenyl]amino}-7-oxopyrido[2,3-d]pyrimidin-8-yl)cyclohexyl]acetamide] | < 0.5 | < 0.5 | 1 to 3 | 1 to 10 |
| C#Cc1cc(=O)n([C@H]2CC[C@@H](N(C)C(=O)CN(C)C)CC2)c2nc(Nc3ccccc3OC)ncc12 [Example 101, 2-(Dimethylamino)-N-methyl-N-[(1s,4s)-4-{5-ethynyl-2-[(2-methoxyphenyl)amino]-7-oxopyrido[2,3-d]pyrimidin-8-yl}cyclohexyl]acetamide] | > 3 | > 3 | > 3 | > 10 |
| C#Cc1c(C)c(=O)n([C@H]2CC[C@H](NC(C)=O)CC2)c2nc(Nc3ccc(N4CCN(C)CC4)cc3)ncc12 [Example 102, N-[(1r,4r)-4-(5-Ethynyl-6-methyl-2-{[4-(4-methylpiperazin-1-yl)phenyl]amino}-7-oxopyrido[2,3-d]pyrimidin-8-yl)cyclohexyl]acetamide] | 1 to 3 | 1 to 3 | 1 to 3 | 1 to 10 |
| C#Cc1c(C)c(=O)n([C@H]2CC[C@@H](NC(C)=O)CC2)c2nc(Nc3ccc(N4CCN(C)CC4)cc3)ncc12 [Example 103, N-[(1s,4s)-4-(5-ethynyl-6-methyl-2-{[4-(4-methylpiperazin-1-yl)phenyl]amino}-7-oxopyrido[2,3-d]pyrimidin-8-yl)cyclohexyl]acetamide] | 1 to 3 | 1 to 3 | 1 to 3 | 1 to 10 |
| C#Cc1cc(=O)n(C2CCNC2=O)c2nc(Nc3ccc(N4CCN(C)CC4)cc3)ncc12 (stereo not drawn) [Example 104, 3-(5-ethynyl-2-{[4-(4-methylpiperazin-1-yl)phenyl]amino}-7-oxopyrido[2,3-d]pyrimidin-8-yl)pyrrolidin-2-one] | < 0.5 | 0.5 to 1 | > 3 | > 10 |
